tested on: mice; test: Hypnotic activity: loss of righting reflex after intravenous injection in mice; assay type: in vivo; conditions: Mus musculus, intravenous injection over 10 seconds, dose causing loss of righting reflex for minimum 30 seconds in 50% of treated mice, read-out: HD50 (hypnotic dose50)
Protocol: The hypnotic potency of the alanine 2,6-dialkoxyphenyl ester derivatives of the invention was determined upon their intravenous administration in mice. The dose required to cause a loss of righting reflex for a minimum period of 30 seconds in 50% of treated mice after intravenous injection over 10 seconds was determined. This dose is termed the HD50 (hypnotic dose50) and is expressed in μmol.kg^−1. These in vivo experiments were carried out as described in detail by Anderson et al., J. Med. Chem. 1997, 40, 1668–1681.

Point of comparison: `COc1cccc(OC)c1OC(=O)C(CN1CCOCC1)N1CCCCC1` (centres unmarked) [Example 19g, 3-(4-Morpholinyl)-2-(1-piperidinyl)propanoic acid, 2,6-dimethoxyphenyl ester], ED50 15 µmol/kg. Against it:
- COc1cccc(OC)c1OC(=O)C(CN1CCOCC1)N1CCSCC1 (centres unmarked) [Example 19a, 3-(4-Morpholinyl)-2-(N-thiomorpholinyl)propanoic acid, 2,6-dimethoxyphenyl ester] — higher, 17 µmol/kg
- COc1cccc(OC)c1OC(=O)C(CN1CCSCC1)N1CCOCC1 (centres unmarked) [Example 19i, 2-(4-Morpholinyl)-3-(N-thiomorpholinyl)propanoic acid, 2,6-dimethoxyphenyl ester] — higher, 19 µmol/kg
- COc1cccc(OC)c1OC(=O)C(CCN1CCOCC1)N1CCOCC1 (centres unmarked) [Example 21a, 2,4-Di-(4-morpholinyl)butanoic acid, 2,6-dimethoxyphenyl ester] — higher, 50 µmol/kg

same assay, conditions: intravenous injection over 10 seconds, dose causing loss of righting reflex for minimum 30 seconds in 50% of treated mice

Point of comparison: `COC(=O)CC(C(=O)Oc1c(OC)cc(C)cc1OC)N1CCOCC1` (centres unmarked) [Example 26b, Butanedioic, 2-(4-morpholinyl)-, 1-(2,6-dimethoxy-4-methylphenyl)ester, 4-methyl ester], “HD50 (hypnotic dose50)” value 46 µmol/kg. Against it:
- COc1cccc(OC)c1OC(=O)C(CN1CCOCC1)N1CCc2ccccc2C1 (centres unmarked) [Example 19b, 3-(4-Morpholinyl)-2-(1,2,3,4-tetrahydroisoquinoline)propanoic acid, 2,6-dimethoxyphenyl ester] — lower, 29 µmol/kg
- COc1cccc(OC)c1OC(=O)C(CN1CCOCC1)N1CCSC(C)(C)C1 (centres unmarked) [Example 19c, 2-[N-(2,2-Dimethylthiomorpholinyl)]-3-(4-morpholinyl)propanoic acid, 2,6-dimethoxyphenyl ester] — lower, 28 µmol/kg
- COc1cccc(OC)c1OC(=O)C(CN1CCOCC1)N1CCO[C@H](C)C1 (stereo partly drawn) [Example 19d, 2-[(R)-4-(2-Methylmorpholinyl)]-3-(4-morpholinyl)propanoic acid, 2,6-dimethoxyphenyl ester] — lower, 27 µmol/kg
- CC[C@@H]1CN(C(CN2CCOCC2)C(=O)Oc2c(OC)cccc2OC)CCO1 (stereo partly drawn) [Example 19e, 2-[(R)-4-(2-Ethylmorpholinyl)]-3-(4-morpholinyl)propanoic acid, 2,6-dimethoxyphenyl ester] — lower, 27 µmol/kg
- CCC1(C)CN(C(CN2CCOCC2)C(=O)Oc2c(OC)cccc2OC)CCO1 (centres unmarked) [Example 19f, 2-[4-(2-Ethyl-2-methylmorpholinyl)]-3-(4-morpholinyl)propanoic acid, 2,6-dimethoxyphenyl ester] — lower, 21 µmol/kg
- COc1cccc(OC)c1OC(=O)C(CN1CCOCC1)N1CCOC[C@H]1C(C)C (some centres unmarked) [Example 19h] — lower, 21 µmol/kg
- COc1cccc(OC)c1OC(=O)C(CN1CCc2ccccc2C1)N1CCOCC1 (centres unmarked) [Example 19j, 2-(4-Morpholinyl)-3-(1,2,3,4-tetrahydroisoquinoline)propanoic acid, 2,6-dimethoxyphenyl ester] — lower, 21 µmol/kg
- COc1cccc(OC)c1OC(=O)C(CN1CC=CCC1)N1CCSCC1 (centres unmarked) [Example 19k, 3-(1,2,3,6-Tetrahydropyridinyl)-2-(N-thiomorpholinyl)propanoic acid, 2,6-dimethoxyphenyl ester] — lower, 15 µmol/kg
- CCOc1cccc(OCC)c1OC(=O)C(CN1CCOCC1)N1CCOCC1 (centres unmarked) [Example 20b, Propanoic acid, 2,3-di(4-morpholinyl), 2,6-diethoxyphenyl ester] — lower, 24 µmol/kg
- COc1cccc(OC)c1OC(=O)C(CCN1CCOC(C)(C)C1)N1CCOC(C)(C)C1 (centres unmarked) [Example 21b] — lower, 25 µmol/kg
- COCCN(CCOC)C(CC(=O)OC)C(=O)Oc1c(OC)cccc1OC (centres unmarked) [Example 24a, Butanedioic, 2-[N-bis(2-methoxyethyl)amino]-, 1-(2,6-dimethoxyphenyl)ester, 4-methyl ester] — higher, 48 µmol/kg
- COCCN(CCOC)C(CC(=O)OC)C(=O)Oc1c(OC)cc(C)cc1OC (centres unmarked) [Example 24b, Butanedioic, 2-[N-bis(2-methoxyethyl)amino]-, 1-(2,6-dimethoxy-4-methylphenyl)ester, 4-methyl ester] — higher, 48 µmol/kg
- COC(=O)CC(C(=O)Oc1c(OC)cccc1OC)N1CCCCC1 (centres unmarked) [Example 28a, Butanedioic, 2-(1-piperidinyl)-, 1-(2,6-dimethoxyphenyl)ester, 4-methyl ester] — lower, 26 µmol/kg
- COC(=O)CC(C(=O)Oc1c(OC)cc(C)cc1OC)N1CCCCC1 (centres unmarked) [Example 28b, Butanedioic, 2-(1-piperidinyl)-, 1-(2,6-dimethoxy-4-methylphenyl)ester, 4-methyl ester] — higher, 48 µmol/kg
- COC(=O)CC(C(=O)Oc1c(OC)cccc1OC)N1CCCCCC1 (centres unmarked) [Example 30a, Butanedioic, 2-(1-hexahydroazepinyl)-, 1-(2,6-dimethoxyphenyl)ester, 4-methyl ester] — lower, 23 µmol/kg
- COC(=O)CC(C(=O)Oc1c(OC)cc(C)cc1OC)N1CCCCCC1 (centres unmarked) [Example 30b, Butanedioic, 2-(1-hexahydroazepinyl)-, 1-(2,6-dimethoxy-4-methyl-phenyl)ester, 4-methyl ester] — lower, 26 µmol/kg
- CCN(CC)C(=O)CC(C(=O)Oc1c(OC)cc(C)cc1OC)N1CCOCC1 (centres unmarked) [Example 32a, Butanedioic, 4-(diethylamino)-4-oxo-, 2-(4-morpholinyl)-, 1-(2,6-dimethoxy4-methylphenyl)ester] — lower, 38 µmol/kg
- COc1cc(C)cc(OC)c1OC(=O)C(CC(=O)N1CCCCC1)N1CCCCC1 (centres unmarked) [Example 34a, Butanedioic, 4-(1-piperidinyl)-4-oxo-, 2-(1-piperidinyl)-, 1-(2,6-dimethoxy-4-methylphenyl)ester] — lower, 38 µmol/kg
- COc1cccc(OC)c1OC(=O)C(CC(=O)N1CCCCC1)N1CCCCC1 (centres unmarked) [Example 34b, Butanedioic, 4-(1-piperidinyl)-4-oxo-, 2-(1-piperidinyl)-1-(2,6-dimethoxyphenyl)ester] — lower, 39 µmol/kg
- COc1cccc(OC)c1OC(=O)C(CC(=O)N1CCCC1)N1CCCCCC1 (centres unmarked) [Example 36, Butanedioic, 2-(1-hexahydroazepinyl)-4-oxo-4-(1-pyrrolidinyl)-, 1-(2,6-dimethoxyphenyl)ester] — lower, 34 µmol/kg
- COc1cc(C)cc(OC)c1OC(=O)C(CCSC)N1CCOCC1 (centres unmarked) [Example 39a, Butanoic acid, 4-(methylthio)-2-(4-morpholinyl)-, 1-(2,6-dimethoxy-4-methylphenyl)ester] — lower, 35 µmol/kg
- COc1cc(C)cc(OC)c1OC(=O)C(CCSC)N1CCCC1 (centres unmarked) [Example 39b, Butanoic acid, 4-(methylthio)-2-(1-pyrrolidinyl)-, 1-(2,6-dimethoxy-4-methylphenyl)ester] — lower, 31 µmol/kg
- COCCN(CCOC)C(CCSC)C(=O)Oc1c(OC)cc(C)cc1OC (centres unmarked) [Example 39c, Butanoic acid, 2-[N-bis(2-methoxyethyl)amino]-4-(methylthio), 1-(2,6-dimethoxy-4-methylphenyl)ester] — lower, 23 µmol/kg

`COc1cccc(OC)c1OC(=O)C(CCSC)N1CCCCC1` (centres unmarked) [Example 40a, Butanoic acid, 4-(methylthio)-2-(1-piperidinyl)-, 1-(2,6-dimethoxyphenyl)ester] was tested, and the “HD50 (hypnotic dose50)” value was under 26 µmol/kg.

Source: patent US7141560B2, “Alanine 2,6-dialkoxyphenyl ester derivatives as hypnotics” (Akzo Nobel N.V., priority 2001, dated 2006)
